The values below come from US11819019B2, “Protein-free semen cryopreservation” (University of Saskatchewan, priority 2017, dated 2023).

Where no end group is shown, it is not given here. [ ]: non-standard residue; d: D form. Dmt = Cc1cc(O)cc(C)c1C[C@H](N)C(=O)O

One data set concerns equine sperm. The following applies: Vidament et al, 2005; cited from earlier work.
Data set [1] deals with bull sperm. The experiment in a line: Motility of fresh bull sperm after exposure to cell penetrating peptides, CASA (Example 8). The conditions noted are these: CPPs added at 37° C., FIG. 13. Type of data set: cell-based. The procedure:
Semen was collected from four bulls using electro-ejaculator. Semen was analyzed with Computer Assisted Semen Analysis (CASA) and washed (2×) with tris citric acid buffer (TB). The washed semen was diluted to 2.2 million/ml with TB. Semen (46 μl) was mixed with 4 μl of 100 μM solution of SS31 or mTP4. TB buffer alone was added in the control sample. […] After incubation, sperm motility was analyzed by CASA and then cells were treated with 2.5 μl propidium iodide (50 μg/ml) or 3 μl SYBR-14. Sperm were fixed with 10 μl of 10%-formaldehyde and another 500 μl PBS was added before flowcytometry analysis.

Data set [2] relates to bull sperm. The experiment in a line: Frozen-thaw longevity of bull sperm with cell penetrating peptides, CASA at 0, 2 and 4 hrs (Example 8). The class given is cell-based. As for the experimental part: Semen was collected from four beef bulls using electro-ejaculator. Immediately after collection, 0.5 μM SS31 or mTP4 was added per ml semen. Concentration of up to 20 μM SS31 or mTP4 were also used. Semen transported to Cryobiology Lab where semen was analyzed with CASA. Semen was further diluted with egg yolk extender to 50 million per ml, packaged in straws and frozen following a freezing curve developed in our lab. Frozen semen with and without SS31 was thawed and CASA analysis was conducted at 0 (<15 min), 2 and 4 hrs. Structural characters, i.e. plasma membrane and acrosome, were also analyzed using FITC-PNA and PI assay with flow cytometer, as described in Examples 4 and 5.

In the case of `OCC(O)CO` [Glycerol, glycerol], in the data set on equine sperm, the “concentration in a preservation medium reported to be toxic to equine sperm” value was “greater than 3.5%”.
D-Arg-DMT-Lys-Phe [SS31]: the “sperm motility and progressive motility as compared control” value in the data set on bull sperm [1] is “improved”. Besides, in the data set on bull sperm [2] (4 hr post-thaw, vs control and mTP4 groups, FIG. 15), the “Percent decline motility over time” value is on record as “lesser”. In addition, in the data set with bull sperm [2] (semen frozen in egg yolk extender, 0, 2 and 4 hrs post-thaw, FIG. 14), the “post-thaw total sperm motility and progressive motility vs control” value is “better”.
In the case of “DMT-D-MWWRRSRTNSLRYT ([Dmt][dM]WWRRSRTNSLRYT) [mTP4]”, the “sperm motility and progressive motility as compared control” value in the data set on bull sperm [1] is “improved”.
